Source: ChEMBL document CHEMBL5126502, “Promising applications of steroid сonjugates for cancer research and treatment” (Eur J Med Chem, 2021)

Assay: Cytotoxicity against human MCF7 cells incubated for 48 hrs by MTT assay
Assay type: toxicity, cell-based

`C[C@@H]1CC[C@@]2(OC1)O[C@H]1C[C@H]3[C@@H]4CC[C@H]5C[C@@H](OC(=O)[C@@H](N)CO)CC[C@]5(C)[C@H]4CC[C@]3(C)[C@H]1[C@@H]2C` gave an IC50 at 48 h of 1500 nM.
